Two compounds from US9089565B2, “Compositions and methods for causing neurite outgrowth” (MEDICAL RESEARCH COUNCIL, priority 2009, dated 2015) can be followed below.

The experiment deals with T1, NgR1 (Homo sapiens, UniProt Q9BZR6).
T1 construct: The cDNAs of NgR1 (NM 023004, Nt. 184-1543); expressed in transfected cells; host or cells: COS7
T1 sequence (Q9BZR6 27-447): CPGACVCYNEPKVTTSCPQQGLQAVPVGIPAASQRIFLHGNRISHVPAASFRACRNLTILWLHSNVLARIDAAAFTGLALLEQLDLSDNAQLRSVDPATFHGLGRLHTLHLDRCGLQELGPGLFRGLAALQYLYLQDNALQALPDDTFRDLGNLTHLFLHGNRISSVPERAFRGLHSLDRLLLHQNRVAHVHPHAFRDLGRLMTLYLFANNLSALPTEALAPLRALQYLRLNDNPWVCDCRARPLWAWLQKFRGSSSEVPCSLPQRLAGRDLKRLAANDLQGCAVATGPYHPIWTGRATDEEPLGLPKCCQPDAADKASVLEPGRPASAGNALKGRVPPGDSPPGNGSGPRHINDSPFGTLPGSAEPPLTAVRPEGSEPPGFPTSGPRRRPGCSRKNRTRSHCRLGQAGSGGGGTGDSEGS
Nature of the experiment: Binding of Nogo-66 fragment (Nogo-GFP) to COS7 cells over-expressing NgR1. As to conditions: wild type NgR1. As for the experimental part: FIG. 3. CK2 phosphorylates NgR1, and inhibits binding of the myelin-associated proteins to NgR1. (A) Myc-tagged wild type, 281S/A or 281S/D mutant NgR1 were over-expressed in COS7 cells. The over-expressed cells were incubated with either the combination of ATP and CK2, or NEP1-40 for 30 min at 37° C. After washing with PBS, cells were incubated with Hisx6-tagged Nogo-GFP for 3 hours at 4° C. The cells were fixed and immunofluorescence was performed with anti-Myc and anti-GFP antibodies. (B) COS7 cells over-expressing Myc-tagged wild type NgR1 were treated as described in (A). Proteins were extracted and the Myc-tagged NgR1 was immunoprecipitated with anti-Myc antibody. Co-precipitated Hisx6-tagged Nogo-GFP was detected by anti-GFP antibody. (C) Cell surface proteins in NgR1-overexpressing COS7 cells were labelled with biotin. The biotinylated proteins were fractionated and analysed by SDS-PAGE. Biotinylated NgR1-Myc was detected with anti-Myc. antibody. (D) COS7 cells over-expressing either wild type NgR1-Myc or 281S/A mutant NgR1-Myc were incubated with ã-^32P-ATP in the presence or absence of CK2. Myc-tagged proteins were immunoprecipitated and analysed with SDS-PAGE. Proteins were blotted onto a PVDF membrane and the membrane was exposed to X-ray film to detect incorporated ^32P. After autoradiography, the membrane was used for immunoblotting with anti-Myc antibody. (E and F) COS7 cells over-expressing Myc-tagged wild type, 281S/A or 281S/D mutant NgR1, were treated as described in (A). After washing with PBS, cells were incubated with either His-tagged OMgp (E) or HA-tagged MAG (F) for 3 hours at 4° C. […]
After treatment with or without CK2, COS7 cells over-expressing wild type or mutant NgR were incubated with Hisx6 tagged Nogo-GFP (10 μg/ml), HA-MAG (50 μg/ml) or Hisx6 tagged OMgp (10 μg/ml) in PBS for 3 hours at 4° C. […] Biotinylated proteins were precipitated with streptavidin beads and were analysed by SDS-PAGE. Each sample fractionated from 5×10^6 cells was analysed by SDS-PAGE. […]

Take `Nc1ncnc2c1ncn2[C@@H]1O[C@H](COP(=O)(O)OP(=O)(O)OP(=O)(O)O)[C@@H](O)[C@H]1O` [ATP]: the “interaction of Nogo-66 fragment with over-expressed NgR1, immunoprecipitation” value (ATP or CK2 alone) is given as “failed to inhibit the interaction”.
For the compound “NEP1-40: a competitive inhibitor of Nogo-66 binding to NgR1 (MEDLDQSPLVSSSDSPPRPQPAFKYQFVREPEDEEEEEEE; Nogo-66 residues 1-40; UniProt Q9NQC3 1-40, looked up, fragment) [reference compound]”, the “binding of the Nogo-66 fragment, immunofluorescence” value (pre-treatment 30 min (CK2 with ATP, or NEP1-40)) is “inhibited binding”.
